Where “and” joins values, the source holds several entries; their conditions need not be identical. Equal values may be shown once. Toxic doses and inconclusive results are not listed. Rule for the calls: active = survival T/C of 150% or more; inactive = T/C below 125% in these data. Peptide text beside a SMILES is read from it. * marks the point of attachment. Cbz = O=C(OCc1ccccc1)*
Tested on: P388 leukemia ip, CD2F1 mice, survival T/C
Test: NCI In Vivo Anticancer Drug Screen. Data for tumor model P388 Leukemia (intraperitoneal) in CD2F1 (CDF1) mice
Conditions: endpoint: median survival time, higher = longer survival
Method in brief: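 Mice carrying the transplanted tumor received test compound or vehicle. Survival was recorded in each group, and the value is the treated-group measurement divided by that of the vehicle-treated control group.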

[1] = dose: 100.0 mg/kg/injection, schedule: Q04DX002 (ip), vehicle: saline with Tween-80
[2] = dose: 200.0 mg/kg/injection, schedule: Q04DX002 (ip), vehicle: saline with Tween-80
[3] = dose: 400.0 mg/kg/injection, schedule: Q04DX002 (ip), vehicle: saline with Tween-80
[4] = dose: 100.0 mg/kg/injection, schedule: Q01DX001 (ip), vehicle: saline with Tween-80
[5] = dose: 200.0 mg/kg/injection, schedule: Q01DX001 (ip), vehicle: saline with Tween-80
[6] = dose: 400.0 mg/kg/injection, schedule: Q01DX001 (ip), vehicle: saline with Tween-80
[7] = dose: 100.0 mg/kg/injection, schedule: Q01DX009 (ip), vehicle: saline
[8] = dose: 200.0 mg/kg/injection, schedule: Q01DX009 (ip), vehicle: saline
[9] = dose: 50.0 mg/kg/injection, schedule: Q01DX005 (ip), vehicle: saline with Tween-80
[10] = dose: 100.0 mg/kg/injection, schedule: Q01DX005 (ip), vehicle: saline with Tween-80
[11] = dose: 200.0 mg/kg/injection, schedule: Q01DX005 (ip), vehicle: saline with Tween-80
[12] = dose: 50.0 mg/kg/injection, schedule: Q01DX009 (ip), vehicle: Klucel (hydroxypropylcellulose) (HPC)
[13] = dose: 100.0 mg/kg/injection, schedule: Q01DX009 (ip), vehicle: Klucel (hydroxypropylcellulose) (HPC)

Measured: T/C

CCN1C(=O)CSC1=S
inactive: dose: 6.25 mg/kg/injection, schedule: Q04DX002 (ip), vehicle: Klucel (hydroxypropylcellulose) (HPC) 112 % of control | dose: 12.5 mg/kg/injection, schedule: Q04DX002 (ip), vehicle: Klucel (hydroxypropylcellulose) (HPC) 110 % of control | dose: 25.0 mg/kg/injection, schedule: Q04DX002 (ip), vehicle: Klucel (hydroxypropylcellulose) (HPC) 105 % of control | dose: 50.0 mg/kg/injection, schedule: Q04DX002 (ip), vehicle: Klucel (hydroxypropylcellulose) (HPC) 109 % of control

O=C(CCCCCCCCc1ccc(O)c(O)c1)c1c(O)cccc1O
inactive: dose: 3.0 mg/kg/injection, schedule: Q01DX009 (ip), vehicle: Klucel (hydroxypropylcellulose) (HPC) 101 % of control | dose: 12.0 mg/kg/injection, schedule: Q01DX009 (ip), vehicle: Klucel (hydroxypropylcellulose) (HPC) 108 % of control | dose: 24.0 mg/kg/injection, schedule: Q01DX009 (ip), vehicle: Klucel (hydroxypropylcellulose) (HPC) 101 % of control

Clc1ccc(-n2cnn3c(-c4ccccc4)ncc23)cc1
inactive: [1] 90 % of control | [2] 87 % of control | [3] 93 % of control

COc1ccc2nc3cc(Cl)ccc3c(NCCCCCCCCNc3c4ccc(Cl)cc4nc4ccc(OC)cc34)c2c1
inactive: dose: 0.62 mg/kg/injection, schedule: Q01DX009 (ip), vehicle: other 101 % of control | dose: 1.25 mg/kg/injection, schedule: Q01DX009 (ip), vehicle: other 101 % of control | dose: 2.5 mg/kg/injection, schedule: Q01DX009 (ip), vehicle: other 104 % of control | dose: 5.0 mg/kg/injection, schedule: Q01DX009 (ip), vehicle: other 100 % of control | dose: 10.0 mg/kg/injection, schedule: Q01DX009 (ip), vehicle: other 97 % of control | dose: 20.0 mg/kg/injection, schedule: Q01DX009 (ip), vehicle: other 109 % of control

Cc1ccc2c(N(CCCl)CCCl)cc(-c3ccccc3)nc2n1
inactive: dose: 50.0 mg/kg/injection, schedule: Q04DX003 (ip), vehicle: Klucel (hydroxypropylcellulose) (HPC) 98 % of control | dose: 100.0 mg/kg/injection, schedule: Q04DX003 (ip), vehicle: Klucel (hydroxypropylcellulose) (HPC) 100 % of control | dose: 200.0 mg/kg/injection, schedule: Q04DX003 (ip), vehicle: Klucel (hydroxypropylcellulose) (HPC) 99 % of control

COc1ccc(-c2nn(-c3ccccc3)c(-c3ccc(OC)cc3)c2N=Nc2ccc(S(=O)(=O)Nc3nnc(C)s3)cc2)cc1
inactive: [4] 100 % of control | [5] 89 % of control | [6] 93 % of control

CC(=O)Oc1ccc2c(c1)C(=O)CCCCC(=O)O2
inactive: dose: 100.0 mg/kg/injection, schedule: Q04DX002 (ip), vehicle: Klucel (hydroxypropylcellulose) (HPC) 106 % of control | dose: 200.0 mg/kg/injection, schedule: Q04DX002 (ip), vehicle: Klucel (hydroxypropylcellulose) (HPC) 116 % of control | dose: 400.0 mg/kg/injection, schedule: Q04DX002 (ip), vehicle: Klucel (hydroxypropylcellulose) (HPC) 106 % of control

CCOC(=O)c1ccc(N(CC)CC)cc1
inactive: dose: 100.0 mg/kg/injection, schedule: Q01DX009 (ip), vehicle: saline with Tween-80 100 % of control | dose: 200.0 mg/kg/injection, schedule: Q01DX009 (ip), vehicle: saline with Tween-80 104 % of control | dose: 400.0 mg/kg/injection, schedule: Q01DX009 (ip), vehicle: saline with Tween-80 100 % of control

O=c1[nH]c(-c2ccncc2)nnc1-c1ccc(Cl)cc1
inactive: [1] 88 % of control | [2] 93 % of control

C/C=C/COc1ccccc1C=O
inactive: dose: 50.0 mg/kg/injection, schedule: Q01DX009 (ip), vehicle: saline 99 % of control | [7] 106 % of control | [8] 100 % of control

CCC(C)C(NC(=O)C1CCCN1C(=O)OCc1ccccc1)C(=O)O (stereo not drawn) (Cbz-Pro-Ile-OH; configuration not given here)
inactive: [9] 100 % of control | [10] 106 % of control | [11] 98 % of control

COc1ccc(N=C2C(=Nc3ccc(OC)cc3)N(c3ccc(OC)cc3)C(=S)N2C)cc1
inactive: dose: 50.0 mg/kg/injection, schedule: Q01DX005 (ip), vehicle: Klucel + Tween-80 106 % of control | dose: 100.0 mg/kg/injection, schedule: Q01DX005 (ip), vehicle: Klucel + Tween-80 93 % of control | dose: 200.0 mg/kg/injection, schedule: Q01DX005 (ip), vehicle: Klucel + Tween-80 106 % of control

CN(c1c(N)nc(N)nc1N)S(=O)(=O)c1ccc([N+](=O)[O-])cc1
inactive: dose: 60.0 mg/kg/injection, schedule: Q01DX005 (ip), vehicle: Klucel (hydroxypropylcellulose) (HPC) 108 % of control | dose: 120.0 mg/kg/injection, schedule: Q01DX005 (ip), vehicle: Klucel (hydroxypropylcellulose) (HPC) 104 % of control | dose: 240.0 mg/kg/injection, schedule: Q01DX005 (ip), vehicle: Klucel (hydroxypropylcellulose) (HPC) 100 % of control

O=C1OCc2c1cc1cc3c(cc1c2-c1ccc2c(c1)OCO2)OCO3
inactive: dose: 12.5 mg/kg/injection, schedule: Q01DX009 (ip), vehicle: Klucel (hydroxypropylcellulose) (HPC) 91 % of control | dose: 25.0 mg/kg/injection, schedule: Q01DX009 (ip), vehicle: Klucel (hydroxypropylcellulose) (HPC) 100 % of control | [12] 100 % of control | [13] 98 % of control

C[Si](C)(C)CNCc1ccccc1
inactive: dose: 15.0 mg/kg/injection, schedule: Q01DX005 (ip), vehicle: saline 108 % of control | dose: 30.0 mg/kg/injection, schedule: Q01DX005 (ip), vehicle: saline 105 % of control | dose: 60.0 mg/kg/injection, schedule: Q01DX005 (ip), vehicle: saline 102 % of control and 97 % of control

CCCC(Nc1nncs1)Nc1nncs1
active: dose: 400.0 mg/kg/injection, schedule: Q01DX005 (ip), vehicle: saline with Tween-80 157 % of control
inactive: [9] 101 % of control | [10] 112 % of control and 94 % of control | [11] 108 % of control

COc1ccc(C2[C@H](C(=O)O)c3ccccc3C(=O)N2Cc2ccccc2)cc1 (stereo partly specified)
inactive: [1] 101 % of control | [2] 104 % of control | [3] 103 % of control

COc1cc(OC)c2[nH]c3c(c(=O)c2c1)C(=O)c1[nH]c2c(OC)cc(OC)cc2c(=O)c1C3=O
inactive: [12] 109 % of control | [13] 105 % of control | dose: 200.0 mg/kg/injection, schedule: Q01DX009 (ip), vehicle: Klucel (hydroxypropylcellulose) (HPC) 108 % of control

Cc1cccc2c(OCC3CO3)cc(=O)[nH]c12 (stereo unspecified)
inactive: dose: 25.0 mg/kg/injection, schedule: Q01DX005 (ip), vehicle: saline with Tween-80 110 % of control | [9] 114 % of control and 118 % of control

O=C(O)c1cc(-n2c(-c3ccccc3)cc3c2CCc2ccccc2-3)ccc1O
inactive: [9] 109 % of control | [10] 110 % of control

CCSC(C(OC(C)=O)C(OC(C)=O)C(COC(C)=O)OC(C)=O)n1cnc2c(=S)nc[nH]c21 (stereo unspecified)
inactive: [4] 101 % of control | [5] 93 % of control | [6] 87 % of control

O=[N+]([O-])c1ccc(/C=N\Nc2ccc([N+](=O)[O-])cn2)cc1
inactive: [7] 100 % of control | dose: 100.0 mg/kg/injection, schedule: Q04DX003 (ip), vehicle: saline with Tween-80 90 % of control | [8] 115 % of control | dose: 200.0 mg/kg/injection, schedule: Q04DX003 (ip), vehicle: saline with Tween-80 104 % of control | dose: 400.0 mg/kg/injection, schedule: Q01DX009 (ip), vehicle: saline 105 % of control | dose: 400.0 mg/kg/injection, schedule: Q04DX003 (ip), vehicle: saline with Tween-80 109 % of control

O=C(CBr)NC1OC(CO)C(O)C(O)C1O (stereo unspecified)
inactive: dose: 2.5 mg/kg/injection, schedule: Q01DX009 (ip), vehicle: saline 99 % of control | dose: 5.0 mg/kg/injection, schedule: Q01DX009 (ip), vehicle: saline 112 % of control | dose: 10.0 mg/kg/injection, schedule: Q01DX009 (ip), vehicle: saline 108 % of control

COC(=O)c1c(-c2ccc(OC)c(OC)c2)c(C=O)n(C)c1C
inactive: [1] 99 % of control | [2] 91 % of control | [3] 90 % of control

C1CNP2(=NP(N3CC3)(N3CC3)=NP(N3CC3)(N3CC3)=N2)N1
active: [4] 156 % of control
inactive: dose: 12.5 mg/kg/injection, schedule: Q01DX001 (ip), vehicle: saline with Tween-80 108 % of control | dose: 25.0 mg/kg/injection, schedule: Q01DX001 (ip), vehicle: saline with Tween-80 108 % of control

— PubChem BioAssay AID330 (DTP/NCI, 2004)
